According to US7018613B2, “Preparations for evaluating eliminative ability of stomach” (Otsuka Pharmaceutical Co., Ltd., priority 2000, dated 2006):

Test: exhalation test (13CO2/12CO2, carbon dioxide gas Δ value) after oral administration to beagle dogs

Row | SMILES | excretion of labeled carbon dioxide gas in the exhalation in the group receiving propantheline versus untreated group (beagle dogs given the capsule of Example 8 granules after propantheline, n=4) | excretion of labeled carbon dioxide gas from the body, in words (male beagle dogs without propantheline, n=4, FIG. 4) | time of maximum of the carbon dioxide gas Δ value, in words (male beagle dogs, n=4, control test, 100 mg NaH13CO3, FIG. 4)
1 | CC(C)[N+](C)(CCOC(=O)C1c2ccccc2Oc2ccccc21)C(C)C [propantheline] | slow compared to that seen in the beagle dogs of the untreated group | – | –
2 | O=C([O-])O.[Na+] [sodium hydrogencarbonate solution, sodium hydrogencarbonate] | – | rapidly excreted from the body | immediately after administration
